Counter-ions that a name gives are not always drawn.
Columns and labels:
Assay type in all cases: biochemical
[1] = molecular target: T1, FAAH (Homo sapiens (Human), UniProt O00519); assay: Assay Method 2: FAAH assay, cells transfected with human FAAH; conditions: T84 or human FAAH-transfected SK-N-MC cell homogenate, 3H-AEA tracer 80 nM, 1 h at rt
Method: Assay Method 2 A. Transfection of Cells with Human FAAH
(§1) A 10-cm tissue culture dish with a confluent monolayer of SK-N-MC cells was split 2 days (d) prior to transfection. Using sterile technique, the media was removed and the cells were detached from the dish by the addition of trypsin. One fifth of the cells were then placed onto a new 10-cm dish. Cells were grown in a 37° C. incubator with 5% CO2 in Minimal Essential Media Eagle with 10% Fetal Bovine Serum. After 2 d, cells were approximately 80% confluent. These cells were removed from the dish with trypsin and pelleted in a clinical centrifuge. The pellet was re-suspended in 400 μL complete media and transferred to an electroporation cuvette with a 0.4 cm gap between the electrodes. Supercoiled human FAAH cDNA (1 pg) was added to the cells and mixed. The voltage for the electroporation was set at 0.25 kV, and the capacitance was set at 960 μF. After electroporation, the cells were diluted into complete media (10 mL) and plated onto four 10-cm dishes. Because of the variability in the efficiency of electroporation, four different concentrations of cells were plated. The ratios used were 1:20, 1:10, and 1:5, with the remainder of the cells being added to the fourth dish. The cells were allowed to recover for 24 h before adding the selection media (complete media with 600 μg/mL G418). After 10 d, dishes were analyzed for surviving colonies of cells. Dishes with well-isolated colonies were used. Cells from individual colonies were isolated and tested.
(§2) T84 frozen cell pellets or transfected SK-N-MC cells (contents of 1×15 cm culture dishes) were homogenized in 50 mL of FAAH assay buffer (125 mM Tris, 1 mM EDTA, 0.2% Glycerol, 0.02% Triton X-100, 0.4 mM Hepes, pH 9). The assay mixture consisted of 50 μL of the cell homogenate, 10 μL of the test compound, and 40 pt of anandamide [1-^3H-ethanolamine] (^3H-AEA, Perkin-Elmer, 10.3 Ci/mmol), which was added last, for a final tracer concentration of 80 nM. The reaction mixture was incubated at rt for 1 h. During the incubation, 96-well Multiscreen filter plates (catalog number MAFCNOB50; Millipore, Bedford, Mass., USA) were loaded with 25 μL of activated charcoal (Multiscreen column loader, catalog number MACL09625, Millipore) and washed once with 100 μL of MeOH. Also during the incubation, 96-well DYNEX MicroLite plates (catalog number NL510410) were loaded with 100 μL of MicroScint40 (catalog number 6013641, Packard Bioscience, Meriden, Conn., USA). After the 1 h incubation, 60 μL of the reaction mixture were transferred to the charcoal plates, which were then assembled on top of the DYNEX plates using Centrifuge Alignment Frames (catalog number MACF09604, Millipore). The unbound labeled ethanolamine was centrifuged through to the bottom plate (5 min at 2000 rpm), which was preloaded with the scintillant, as described above. The plates were sealed and left at rt for 1 h before counting on a Hewlett Packard TopCount.

[2] = molecular target: rat FAAH (Rattus norvegicus (Rat), UniProt P97612); assay: Assay Method 3: FAAH assay, cells transfected with rat FAAH; conditions: T84 or rat FAAH-transfected SK-N-MC cell homogenate, 3H-AEA tracer 80 nM, 1 h at rt
Method: Assay Method 3 A. Transfection of Cells with Rat FAAH
as §1, with “rat” for “human”, “μg)” for “pg)”
as §2, with “μL” for “pt”

[3] = molecular target: T1, FAAH; assay: Assay Method 1: FAAH assay, T84 cell homogenate, 3H-anandamide hydrolysis; conditions: 3H-AEA tracer 200 nM, 1 h at rt
Outline: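 Homogenate of human T84 cells in pH 9 Tris/EDTA buffer with 0.02% Triton X-100 was incubated with compound and 200 nM final 3H-anandamide for 1 h at rt. Released [3H]ethanolamine was separated from substrate through activated charcoal by centrifugation and quantified by scintillation counting.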

T1 sequence (O00519 whole entry): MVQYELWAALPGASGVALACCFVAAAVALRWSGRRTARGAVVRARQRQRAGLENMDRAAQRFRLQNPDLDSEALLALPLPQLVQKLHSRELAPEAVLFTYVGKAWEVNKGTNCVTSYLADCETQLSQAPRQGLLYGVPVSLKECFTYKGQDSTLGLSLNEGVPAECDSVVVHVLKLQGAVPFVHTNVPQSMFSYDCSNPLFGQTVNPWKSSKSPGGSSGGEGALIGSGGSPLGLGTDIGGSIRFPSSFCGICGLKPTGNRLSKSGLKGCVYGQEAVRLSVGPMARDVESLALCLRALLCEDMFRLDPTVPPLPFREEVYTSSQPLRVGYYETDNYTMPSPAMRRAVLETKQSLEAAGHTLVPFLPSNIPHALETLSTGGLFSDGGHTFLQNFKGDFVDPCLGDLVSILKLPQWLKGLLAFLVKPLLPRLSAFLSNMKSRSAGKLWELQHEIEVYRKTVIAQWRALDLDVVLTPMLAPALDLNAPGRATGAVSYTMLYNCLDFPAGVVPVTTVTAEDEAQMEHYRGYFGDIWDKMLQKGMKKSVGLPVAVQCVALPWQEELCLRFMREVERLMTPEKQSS
Chain of rat FAAH (P97612 whole entry): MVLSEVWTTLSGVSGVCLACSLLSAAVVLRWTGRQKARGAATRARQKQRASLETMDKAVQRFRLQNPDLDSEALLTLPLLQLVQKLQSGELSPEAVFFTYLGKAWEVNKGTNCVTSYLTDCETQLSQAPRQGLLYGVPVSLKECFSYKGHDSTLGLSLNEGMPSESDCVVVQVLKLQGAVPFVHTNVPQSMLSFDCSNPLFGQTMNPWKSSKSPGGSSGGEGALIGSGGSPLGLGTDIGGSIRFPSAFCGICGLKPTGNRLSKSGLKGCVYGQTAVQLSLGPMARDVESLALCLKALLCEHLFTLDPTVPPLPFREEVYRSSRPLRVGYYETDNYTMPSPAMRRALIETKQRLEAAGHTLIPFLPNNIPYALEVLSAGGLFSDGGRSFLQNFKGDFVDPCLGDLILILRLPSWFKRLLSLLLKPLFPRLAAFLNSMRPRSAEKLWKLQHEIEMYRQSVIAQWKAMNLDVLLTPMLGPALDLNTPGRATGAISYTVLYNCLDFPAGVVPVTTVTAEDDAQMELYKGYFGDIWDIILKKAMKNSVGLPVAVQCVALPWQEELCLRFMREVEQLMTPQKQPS

IC50 [1] [µM] | IC50 [2] [µM] | IC50 ([3]; hydrochloride) [µM] | IC50 ([2]; hydrochloride) [µM] | IC50 [3] [µM] | Structure (SMILES)
4.1 | 4 | – | – | – | O=C(Nc1cccnc1)N1CCN(Cc2cnc3ccccc3c2)CC1 [Example 142, 4-Quinolin-3-ylmethyl-piperazine-1-carboxylic acid pyridin-3-ylamide]
– | – | 0.038 | 0.27 | – | O=C(Nc1ccccc1)N1CCN(Cc2ccc(Br)c(Br)c2)CC1 [Example 162, 4-(3,4-Dibromo-benzyl)-piperazine-1-carboxylic acid phenylamide hydrochloride]
8 | 10 | – | – | – | O=C(O)c1ccc(NC(=O)N2CCN(Cc3cnc4ccccc4c3)CC2)cc1 [Example 155, 4-[(4-Quinolin-3-ylmethyl-piperazine-1-carbonyl)-amino]-benzoic acid]
> 10 | 10 | – | – | – | COC(=O)c1ccccc1NC(=O)N1CCN(Cc2cnc3ccccc3c2)CC1 [Example 105, 2-[(4-Quinolin-3-ylmethyl-piperazine-1-carbonyl)-amino]-benzoic acid methyl ester]
2 | 10 | – | – | – | O=C(Nc1ccncc1)N1CCN(Cc2cnc3ccccc3c2)CC1 [Example 144, 4-Quinolin-3-ylmethyl-piperazine-1-carboxylic acid pyridin-4-ylamide]
> 10 | 10 | – | – | – | O=C(Nc1ncccn1)N1CCN(Cc2ccc3c(c2)OCO3)CC1 [Example 148, 4-Benzo[1,3]dioxol-5-ylmethyl-piperazine-1-carboxylic acid pyrimidin-2-ylamide]
3 | 10 | – | – | – | O=C(Nc1ccncc1)N1CCN(Cc2ccc3c(c2)OCO3)CC1 [Example 147, 4-Benzo[1,3]dioxol-5-ylmethyl-piperazine-1-carboxylic acid pyridin-4-ylamide]
– | 2 | – | – | 0.25 | O=C(Nc1ccc(F)cc1F)N1CCN(Cc2cnc3ccccc3c2)CC1 [Example 111, 4-Quinolin-3-ylmethyl-piperazine-1-carboxylic acid (2,4-difluoro-phenyl)-amide]
4 | 10 | – | – | – | O=C(Nc1ccncn1)N1CCN(Cc2cnc3ccccc3c2)CC1 [Example 152, 4-Quinolin-3-ylmethyl-piperazine-1-carboxylic acid pyrimidin-4-ylamide]
– | 0.43 | – | – | 0.054 | O=C(Nc1ccc(F)cc1)N1CCN(Cc2ccc3ccccc3c2)CC1 [Example 57, 4-Naphthalen-2-ylmethyl-piperazine-1-carboxylic acid (4-fluoro-phenyl)-amide]
0.65 | 8 | – | – | – | COC(=O)c1ccc(NC(=O)N2CCN(Cc3cnc4ccccc4c3)CC2)cc1 [Example 107, 4-[(4-Quinolin-3-ylmethyl-piperazine-1-carbonyl)-amino]-benzoic acid methyl ester]
0.282 | 2 | – | – | – | O=C(Nc1ccncn1)N1CCN(Cc2ccc(Br)c(Br)c2)CC1 [Example 154, 4-(3,4-Dibromo-benzyl)-piperazine-1-carboxylic acid pyrimidin-4-ylamide]
1.7 | 2 | – | – | – | O=C(Nc1ccncc1)N1CCN(Cc2ccc3c(c2)OC(F)(F)O3)CC1 [Example 151, 4-(2,2-Difluoro-benzo[1,3]dioxol-5-ylmethyl)-piperazine-1-carboxylic acid pyridin-4-ylamide]
0.38 | 6.5 | – | – | – | O=C(Nc1cccnc1)N1CCN(Cc2ccc3c(c2)OCO3)CC1 [Example 146, 4-Benzo[1,3]dioxol-5-ylmethyl-piperazine-1-carboxylic acid pyridin-3-ylamide]
5 | 8 | – | – | – | O=C(O)c1cccc(NC(=O)N2CCN(Cc3cnc4ccccc4c3)CC2)c1 [Example 141, 3-[(4-Quinolin-3-ylmethyl-piperazine-1-carbonyl)-amino]-benzoic acid (potassium salt)]
– | 10 | – | – | 1.6 | O=C(Nc1ccc(F)cc1)N1CCN(Cc2ccc3c(c2)OCO3)CC1 [Example G, 4-Benzo[1,3]dioxol-5-ylmethyl-piperazine-1-carboxylic acid (4-fluoro-phenyl)-amide, reference compound]
– | 0.13 | – | – | 0.079 | COc1cc(Br)cc(CN2CCN(C(=O)Nc3ccccc3)CC2)c1O [Example 26, 4-(5-Bromo-2-hydroxy-3-methoxy-benzyl)-piperazine-1-carboxylic acid phenylamide]
– | 0.37 | – | – | 0.061 | O=C(Nc1ccccc1F)N1CCN(Cc2cnc3ccccc3c2)CC1 [Example 112, 4-Quinolin-3-ylmethyl-piperazine-1-carboxylic acid (2-fluoro-phenyl)-amide]
– | 8 | – | – | 0.35 | O=C(Nc1ccccc1)N1CCN(Cc2ccc3c(c2)OCO3)CC1 [Example B, 4-Benzo[1,3]dioxol-5-ylmethyl-piperazine-1-carboxylic acid phenylamide, reference compound]
– | 1.4 | – | – | 0.026 | Cn1c(CN2CCN(C(=O)Nc3ccccc3)CC2)cc2ccccc21 [Example 22, 4-(1-Methyl-1H-indol-2-ylmethyl)-piperazine-1-carboxylic acid phenylamide]

Structure (SMILES) | IC50 [1] [µM] | IC50 [2] [µM] | IC50 ([3]; hydrochloride) [µM] | IC50 ([2]; hydrochloride) [µM] | IC50 [3] [µM]
O=C(Nc1ccccc1)N1CCN(Cc2ccc3ccc4cccc5ccc2c3c45)CC1 [Example 68, 4-Pyren-1-ylmethyl-piperazine-1-carboxylic acid phenylamide] | – | 0.61 | – | – | 0.095
O=C(Nc1ccccc1)N1CCN(Cc2ccc3ccccc3n2)CC1 [Example 19, 4-Quinolin-2-ylmethyl-piperazine-1-carboxylic acid phenylamide] | – | 0.35 | – | – | 0.019
